Reference: patent US20200330447A1, “CANCER TREATMENT VIA REPOSITIONED TRICYCLIC ANTI-DEPRESSANT-LIKE DRUGS AS ANTI-CANCER AGENTS AND NEW COMBINATIONS OF SUCH DRUGS” (Board of Supervisors of Louisiana State University and …, priority 2015, published 2020)

How the values were obtained:
Format in all cases: cell-based
LC3-II = assay: Autophagy: LC3-I/LC3-II western blot and GFP-LC3II microscopy; conditions: A172 cells, overnight; for levels of LC3-II, western blot: deptropine 5 or 10 micromolar, pizotifen 5 micromolar; for association of GFP-LC3-II with puncta representing autophagosomes: microscopy
Method: A further embodiment of this technology is the use of deptropine and pizotifen to induce autophagy. A172 cells were treated with EIPA (1), Serum (2), Serum Free (3), DMSO (4, solvent control), rapamycin 0.5 micromolar (5), one micromolar (6), deptropine at 5 micromolar (7), 10 micromolar (8) or pizotifen at 5 micromolar (9) overnight and GFP-LC3II was visualized by microscopy or western blot analysis was performed to detect LC3-I and LC3-II forms.

A172 glioblastoma cells [1] = assay: Acidic media pH induced lysosome distribution, LAMP-1 IF imaging; conditions: for acidic media induced trafficking of lysosomes to the cell periphery: 5 or 10 μM overnight, then low pHe media with drug 2 h; for lysosomal outward movement, early time: 5 or 10 μM, 2 h then low pHe media with drugs 2 h (4 hours); for inward movement of lysosomes, single drug: one micromolar alone
Method: (§1) A172 glioblastoma cells were treated overnight with 5 or 10 μM deptropine or pizotifen or with the deptropine or pizotifen in combination at 5 μM concentration. The next day, media was change to low pHe media containing deptropine or pizotifen and the cells were incubated for an additional 2 h. EIPA is a known inhibitor of lysosomal outward movement and represents the positive control. At the end of the incubation time, cells were fixed and stained for LAMP-1, filamentous actin and nuclei. Representative merged IF images depicting the effect of pHe 7.4, pHe 6.4, DMSO or deptropine and pizotifen on the distribution of lysosomes in A172 glioblastoma cells. On color versions of the Figure, red puncta are lysosomes, blue is nuclei and green is actin. As could be seen, lysosomes appear more peripherally distributed in A172 glioma cells than in cells treated with concentrations of 5 to 10 micromolar deptropine or pizotifen.
Cells were treated as described above with FIG. 2 but included a concentration of 0.1 micromolar and 1 micromolar deptropine and pizotifen.
Turning to FIG. 7, an additional aspect of this technology is how quickly deptropine and pizotifen act to move lysosomes towards the nucleus. […] A172 glioblastoma cells were treated with the 5 or 10 μM deptropine or pizofifen for 2 h and then with low pHe media containing the drugs for an additional 2 hours. At the end of incubation time, cells were fixed and stained for LAMP-1, filamentous actin, and nuclei. Representative merged IF images depicting the effect of DMSO, 5 and 10 μM deptropine or pizotifen upon 4 hours on the distribution of lysosomes, colored red in color images, in A172 glioblastoma cells. Also shown in color images are actin, colored green, and nuclei, colored blue.

A172 glioblastoma cells [2] = assay: Growth factor (HGF, EGF) induced trafficking of lysosomes to cell periphery; conditions: 10 μM overnight, HGF (33 ng/ml) or EGF (100 ng/ml)
Method: In this embodiment deptropine and pizotifen also block lysosome peripheral movement in glioma cells treated with the growth factors HGF and EGF. Both of these growth factors interact with their receptors, c-Met and EGFR, respectively to induce glioma invasion. In this example, A172 glioblastoma cells were treated overnight with 10 μM deptropine or pizotifen in the presence or absence of HGF (33 ng/ml) or EGF (100 ng/ml). At the end of the incubation time, cells were fixed and stained for LAMP-1, filamentous actin, and nuclei. Representative merged IF images depicting the effect of DMSO, 10 μM deptropine or pizotifen and/or HGF, EGF on the distribution of lysosomes (red in color images) in A172 glioblastoma cells. Also shown here are actin (green in color images) and nuclei (blue in color images).

mTOR signaling pathway = assay: Western blot of phosphorylated S6K (mTOR signaling); conditions: A172 cells, 4 hours
Method: Deptropine and pizotifen were added to A172 cells for 4 hours and western blot analysis was performed to measure levels of phosphorylated S6K, indicative of active mTOR signaling.

A172 glioblastoma cells [3] = assay: Wound invasion through matrigel, Incucyte; conditions: for invasion: 5 or 10 μM, 8 h prior to wounding and addition of matrigel
Method: (§2) An important aspect of this technology is the showing that deptropine and pizotifen block tumor invasion using 3D assays. […] For this experiment A172 glioblastoma cells were treated with 5 or 10 μM deptropine or pizotifen or drug mix at 5 μM concentration for 8 h prior to the wounding and the addition of matrigel. Upon wounding, cells were allowed to migrate or invade through matrigel in the presence of DMSO, 5 or 10 μM deptropine or pizotifen or the drug mix at 5 μM concentration. EIPA, a known inhibitor of lysosomal outward movement, is the positive control. Motility and invasion were calculated by Incucyte platform that acquires real time images of invasion and motility and calculate the relative wound density percentage at different time points. Percent migration (FIG. 6A) or invasion (FIG. 6B) through matrigel in A172 glioblastoma cells in the presence of DMSO, 5 or 10 μM deptropine or pizotifen or the drug mix at 5 μM concentration. Error bars represent s.e.m. of 5 separate experiments. # statistical significance, p<0.001, versus both 1% FBS and DMSO; *, p<0.01 versus both 1% FBS and DMSO

A172 glioblastoma cells [4] = assay: Wound motility (migration) assay, Incucyte; conditions: for motility: 5 or 10 μM, 8 h prior to wounding; for motility (percent migration), single drug: either drug alone at 10 μM
Method: as §2

A172 cells [5] = assay: Standard MTS assay (proliferation); conditions: concentrations up to 10 micromolar
Method: A very beneficial aspect of the treatment with deptropine and pizotifen is shown in FIG. 11, namely that the actions of deptropine and pizotifen are not the result of toxicity. The standard MTS assay was performed for A172 cells in the presence of the indicate concentrations of deptropine and pizotifen.

Erk signaling pathway = assay: Lysosome inward movement in the presence of the MAPK inhibitor U0126, and Erk western blot; conditions: A172 cells, results not shown
Method: Turning to FIG. 8, deptropine and pizotifen are shown to act through the Erk signaling pathway. In this experiment, A172 cells were treated with deptropine and pizotifen at 5 μM concentrations for 4 hours in the presence of the MAPK inhibitor U0126. I.F. microscopy was then performed. This helped allow the determination of the mechanism of action of deptropine and pizotifen.

U373 glioma cell lines = assay: Lysosome outward movement in U373 cells; conditions: method of FIG. 2
Method: as §1
In an additional experiment, following the method whose results are shown in FIG. 2 above but with different cells, the broad range and general effectiveness of deptropine and pizotifen is shown beyond just in A172 glioblastoma cells. Specifically, deptropine and pizotifen were applied to U373 glioma cell lines instead of A172 glioblastoma cells.

A172 cells [6] = assay: Invasive structures in 3D culture

Row | SMILES | levels of LC3-II, western blot (LC3-II) | association of GFP-LC3-II with puncta representing autophagosomes (LC3-II) | acidic media induced trafficking of lysosomes to the cell periphery (A172 glioblastoma cells [1]) | lysosomal outward movement, early time (A172 glioblastoma cells [1]) | inward movement of lysosomes, single drug (A172 glioblastoma cells [1]) | trafficking of lysosomes to cell periphery induced by growth factors (A172 glioblastoma cells [2]) | phosphorylation of S6K (mTOR signaling pathway) | invasion (A172 glioblastoma cells [3]) | motility (A172 glioblastoma cells [4]) | motility (percent migration), single drug (A172 glioblastoma cells [4]) | proliferation (MTS) (A172 cells [5]) | Erk signaling pathway, western blot (Erk signaling pathway) | lysosome outward movement (U373 glioma cell lines) | number of invasive structures formed in 3D culture (A172 cells [6]) | invasion through matrigel (percent invasion) (A172 glioblastoma cells [3]; 10 μM)
1 | CN1[C@@H]2CC[C@H]1C[C@@H](OC1c3ccccc3CCc3ccccc31)C2 [deptropine, 3a-[(10, 11-dihydro-5H-dibenzo[a,d]cyclohepten-5-yl)oxy]1aH,5aH-tropane] | increases the levels of the proteins LC3-II | increase the association GFP-LC3-II with puncta | blocks acidic media induced trafficking of lysosomes to the cell periphery | prevent lysosomal outward movement | only a marginal effect | block trafficking of lysosomes to cell periphery | eliminates the phosphorylation of S6K | decrease | decrease | reduces motility but to a level that is determined to be significant | do not inhibit proliferation | activate the Erk signaling pathway | block lysosome outward movement | effectively reduce the number of invasive structures | 
2 | CN1CCC(=C2c3ccccc3CCc3sccc32)CC1 [pizotifen, 4-(1-methyl-4-piperidylidine)-9,10-dihydro-4H-benzo-[4,5]cyclohepta[1,2]-thiophene] | increases the levels of the proteins LC3-II | increase the association GFP-LC3-II with puncta | blocks acidic media induced trafficking of lysosomes to the cell periphery | prevent lysosomal outward movement | only a marginal effect | block trafficking of lysosomes to cell periphery | eliminates the phosphorylation of S6K | decrease | decrease | reduces motility but to a level that is determined to be significant | do not inhibit proliferation | activate the Erk signaling pathway | block lysosome outward movement | effectively reduce the number of invasive structures | significantly reduces invasion
